The values that follow come from article PMC7404261 (2020).

The test system of test [1] is ssDNA-G4-Rv (DNA, single strand) ACCCCTTCCGCGCGCCTTTTCCCG
In words: ethidium bromide staining of nondenaturing gel. The conditions noted are these: K+ (100 mM KCl annealing, 10 mM KCl gel); Tris/HCl pH 7.5 annealing; 1x TBE gel; 1 µg/mL EthBr after ThT staining.

Test [2] has as its system dsDNA-G4 (DNA, duplex) CGGGAAAAGGCGCGCGGAAGGGGT/ACCCCTTCCGCGCGCCTTTTCCCG
In words: ethidium bromide staining of nondenaturing gel. The note with it: K+ (100 mM KCl annealing, 10 mM KCl gel); Tris/HCl pH 7.5 annealing; 1x TBE gel; 1 µg/mL EthBr after ThT staining.

In test [3] the test system is ssDNA-G4-Fw (DNA, G4) CGGGAAAAGGCGCGCGGAAGGGGT
In words: ThT staining of nondenaturing gel. The conditions noted are these: K+ (100 mM KCl annealing, 10 mM KCl gel); Tris/HCl pH 7.5 annealing; 1x TBE gel; stained with 5 µM ThT.

The test system of test [4] is HpTYMS-G4-T (DNA, hairpin) GGGAAAAGGCGCGCGGAAGGGGTTTTTGGGGAAGGCGCGCGGAAAAGGG
In words: ThT staining of nondenaturing gel. The conditions noted are these: K+ (100 mM KCl annealing, 10 mM KCl gel); Tris/HCl pH 7.5 annealing; 1x TBE gel; stained with 5 µM ThT.

In test [5] the test system is ssDNA-G4-Rv (DNA, single strand) ACCCCTTCCGCGCGCCTTTTCCCG
In words: ThT staining of nondenaturing gel. The conditions noted are these: K+ (100 mM KCl annealing, 10 mM KCl gel); Tris/HCl pH 7.5 annealing; 1x TBE gel; stained with 5 µM ThT.

Test [6] has as its system dsDNA-G4 (DNA, duplex) CGGGAAAAGGCGCGCGGAAGGGGT/ACCCCTTCCGCGCGCCTTTTCCCG
Briefly: ThT staining of nondenaturing gel. The note with it: K+ (100 mM KCl annealing, 10 mM KCl gel); Tris/HCl pH 7.5 annealing; 1x TBE gel; stained with 5 µM ThT.

Test [7] deals with HpTYMS-G4-T-WC (DNA, hairpin) CCCTTTTCCGCGCGCCTTCCCCTTTTTGGGGAAGGCGCGCGGAAAAGGG
Briefly: ThT staining of nondenaturing gel. The conditions noted are these: K+ (100 mM KCl annealing, 10 mM KCl gel); Tris/HCl pH 7.5 annealing; 1x TBE gel; stained with 5 µM ThT.

For `CC[n+]1c(-c2ccccc2)c2cc(N)ccc2c2ccc(N)cc21`, the binding entry in test [1] and in test [2] was “yes” throughout.
Consider `Cc1ccc2c(c1)sc(-c1ccc(N(C)C)cc1)[n+]2C`, for which the binding result in test [3] is recorded as “yes”; in test [4] it was “yes”; in test [5], “no”; in test [6], “no”; in test [7] it was “yes”.
